Results taken from patent publication US6489317B1, “Method for eradication of Helicobacter pylori” (priority 1998, dated 2002).

System: H. pylori
Assay: E-test (epsilon test, AB Biodisc) antibiotic sensitivity of H. pylori cultured from patients
Type: cell-based, Helicobacter pylori
Description: The E-test is used as a graded antibiotic sensitivity detecting strip for examining resistance of H.pylori.

Structure (SMILES): CO[C@H]1/C=C/O[C@@]2(C)Oc3c(C)c(O)c4c(c3C2=O)C2=NC3(CCN(CC(C)C)CC3)NC2=C(NC(=O)/C(C)=C\C=C\[C@H](C)[C@H](O)[C@@H](C)[C@@H](O)[C@@H](C)[C@H](OC(C)=O)[C@@H]1C)C4=O [Rifabutin]
- E. Test Rifabutin (H. pylori isolate of each patient): < 0.002 µg/mL
- E. Test Rifabutin Result (H. pylori isolate of each patient, Resistant/Sensitive): Sensitive
- sensitivity of infection to rifabutin (all cases of H. pylori infection resistant to one or both of metronidazole and clarithromycin): sensitive
